The record followed here is patent US20100291181A1, “THERAPEUTIC DEVICES FOR PATTERNED CELL GROWTH” (RUTGERS, THE STATE UNIVERSITY OF NEW JERSEY, priority 2002, published 2010).

Assay [1] deals with dorsal root ganglia or dissociated neurons. Description: Dorsal root ganglia or dissociated neurons plated on laminin pattern. It counts as cell-based, chick. As to conditions: pattern of lines, PMMA substrate. From the text: Biologically active molecules were stably adsorbed onto a polymeric substrate without chemical modification of the substrate and without the use of linkers. A nondegradable polymer, poly(methyl methylacrylate) (PMMA, […] thickness, Goodfellows) and a degradable polymer, such as poly(hydroxybutyrate (PHB), polycaprolactone or polycaprolactam), were used as polymeric substrates for application of a micropattern of laminin. See FIG. 2 for the general procedure. For these experiments, the polymers were compressed into thin films of 200 μm and cut to the size of coverslips. After activation, polymeric substrates were evaluated via x-ray photoelectron spectroscopy, and/or scanning electron microscopy. […] After laminin absorption, its deposition was determined by incubating the prepared slips with rabbit anti-laminin affinity isolated antibody and FITC-conjugated goat anti-rabbit IgG (see FIG. 3).
Dorsal root ganglia dissected from seven-day old chick embryos were either directly plated onto the patterned substrate or dissociated into individual neurons and plated. […]
The laminin stamped PMMA squares were rinsed with Hank's balanced saline solution and plated with dorsal root ganglia or dissociated neurons in minimal, serum-free media. The samples were incubated at 37° C. for 24 to 48 hours, imaged with a Zeiss laser scanning confocal microscope, and the images analyzed for pattern adherence. […]

Assay [2] concerns primary rat Schwann cells. Description: Schwann cells plated on pattern of laminin lines, orientation analysis. It counts as cell-based. On the procedure:
Purified primary rat Schwann cells were obtained from Prof. M. B. Bunge, University of Miami, the Miami Project to Cure Paralysis, and maintained in tissue culture flasks with a growth media consisting of Dulbecco's Modified Eagle's Medium (DMEM, Sigma), 10% v/v fetal bovine serum (Gibco), L-glutamine (2 mM, BioWhittaker), penicillin/streptomycin (P/S, 50 U/mL/50 μg/mL, BioWhittaker), 10 μg/mL bovine pituitary extract (Collaborative), and 10 μM forskolin (Sigma).
Schwann cells were rinsed with phosphate buffered saline (PBS, BioWhittaker) and incubated with trypsin ([…], Sigma) for 3 min. An equal amount of serum containing media was added to deactivate the trypsin and the cells were concentrated by centrifugation. […]
The samples were imaged on a Zeiss LSM 410 confocal laser-scanning microscope (CLSM) with a computer controlled laser scanning assembly attached to the microscope using a 20× phase contrast objective in fluorescence mode. An Omnichrome 3 line Argon/Krypton laser (488, 568, 647 nm) was used as the excitation source for double fluorescence measurements, with excitation at 488 nm and 568 nm and emission at 512 nm and 605 nm. […]
Multiple images were taken randomly per sample and analyzed by Image Pro Plus image analysis software (Media Cybernetics). […] Major and minor axes were calculated as well as the angle created by the major axis and the direction of patterning (FIG. 7). […]

Take laminin: the “neuronal process outgrowth along the pattern” value in assay [1] is “most neuronal processes adhere to and grow along the lines of the laminin pattern”. For the same substance, in assay [2] (monolayer, ellipse fitting, FIG. 7), the “orientation of Schwann cells relative to direction of laminin patterning (0°)” value was “majority of the cells are oriented at 0°”. For the same substance, the “process outgrowth along the pattern, Schwann cells” value in assay [2] (pattern of lines, FIG. 5) was “most neuronal processes adhere to and grow along the lines of the laminin pattern”.
